Experimental data taken from patent USRE48461E1, “Modulation of androgen receptor expression” (Ionis Pharmaceuticals, Inc., priority 2012, dated 2021).

Key:
Assay type in all cases: cell-based, human
[1] = system: C4-2 cells; test: C4-2 cell proliferation (complete or CSS+DHT medium); conditions: 5 days; for Proliferation (% untreated control): C4-2 cells
Procedure: After a treatment period of 5 days in complete medium or CSS+1 nM DHT medium, the proliferative capacity of the cancer cells was measured with using CellTiter 96® AQueous One Solution or CellTiter-Glo® Cell Proliferation kit (Promega), following the manufacturer's instructions. […] The proliferative capacity of cells cultured in CSS medium without DHT is 17% of untreated control levels.

[2] = system: AR mRNA; test: AR RNA expression in C4-2 cells (complete, CSS+DHT medium); conditions: 48 hrs; for Percent expression of AR: C4-2 cells, CSS + DHT medium
Procedure: Cells were plated at 1,000 cells per well. […] After an incubation period of 48 hrs, RNA levels of AR, PSA and TMPRSS2 were measured.
Cells were plated at 2,000 cells per well and cultured in CSS media with 1 nM DHT. […] After an incubation period of 48 hrs, RNA levels of AR, PSA and TMPRSS2 were measured.

[3] = system: 22RV1 cells; test: 22RV1 apoptosis (Caspase-glo 3/7); conditions: 72 hours; for Apoptosis (% untreated control): 22RV1 cells
Procedure: After a treatment period of 72 hours in complete medium or CSS+DHT medium, apoptosis of the cancer cells was measured with Caspase-glo 3/7 assay kit (Promega). Results are presented in Tables 131 and 132 as percent apoptosis of the cells, relative to non-treated cells.

[4] = system: VCaP cells; test: VCaP apoptosis (Caspase-Glo 3/7); conditions: complete medium, 72 hours; for Apoptosis (% untreated control): VCaP cells
Procedure: After a treatment period of 72 hours in complete medium, apoptosis of the cancer cells was measured with Caspase-Glo 3/7 assay (Promega). Results are presented in Tables 117 and 118 as percent apoptosis of the cells, relative to non-treated cells.

[5] = system: TMPRSS2 mRNA; test: TMPRSS2 expression in VCaP cells; conditions: RNAiMax, 48 hrs
Procedure: (§1) Cells were plated at 10,000 cells per well. […] After an incubation period of 48 hrs, RNA levels of full length AR, the V7 variant, PSA and TMPRSS2 were measured.
(§2) After an incubation period of 48 hrs, RNA levels of full length AR, the V7 variant, PSA and TMPRSS2 were measured. The data is presented in Tables 108 expressed as percent expression of gene levels compared to the untreated control.
(§3) Cells were plated at 15,000 cells per well and cultured in CSS media for 16 hours. […] After 4 hrs, 1 nM DHT was added. […] After an incubation period of 48 hrs, RNA levels of AR, PSA and TMPRSS2 were measured.

[6] = system: TMPRSS2 mRNA; test: TMPRSS2 expression in 22RV1 cells; conditions: RNAiMax, 48 hrs
Procedure: Cells were plated at 1,000 cells per well. […] After an incubation period of 48 hrs, RNA levels of full length AR, the V7 variant, PSA and TMPRSS2 were measured.
After an incubation period of 48 hrs, RNA levels of full length AR, the V7 variant, PSA and TMPRSS2 were measured.
Cells were plated at 2,000 cells per well and cultured in CSS media for 16 hours. […] After 4 hrs, 1 nM DHT was added. […] After an incubation period of 48 hrs, RNA levels of AR, AR V7 variant, PSA and TMPRSS2 were measured.

[7] = system: PSA mRNA; test: PSA expression in VCaP cells; conditions: RNAiMax, 48 hrs
Procedure: as §1, §2, §3

[8] = system: 22RV1 cells; test: 22RV1 cell proliferation, ASO in combination with MDV3100 (Example 22); conditions: for Proliferation (% untreated control) in 22RV1 without MDV-3100: RNAiMAX, 3 days
Procedure: 22RV1 cells were plated at 2,000 cells per well in 5% CSS medium for 48 hours. […] ISIS 549148 was included as a negative control. […] After a treatment period of 3 days, the proliferative capacity of the cancer cells was measured with CellTiter 96® AQueous One Solution Cell Proliferation kit (Promega), following the manufacturer's instructions. Results are presented in Tables 58-62 as percent inhibition of proliferation, relative to non-treated cells.

Which results are given for “TGATTTAATGGTTGCA [ISIS 569236] (cEt/MOE gapmer chemistry, further chemistry not given here) [targets intron 1]”?
Proliferation (% untreated control) ([1]; CSS + DHT medium, 0.04 μM): 99 % untreated control; Proliferation (% untreated control) ([1]; CSS + DHT medium, 0.2 μM): 99 % untreated control; Proliferation (% untreated control) ([1]; CSS + DHT medium, 1 μM): 88 % untreated control; Proliferation (% untreated control) ([1]; CSS + DHT medium, 5.0 μM): 51 % untreated control; Proliferation (% untreated control) ([1]; complete medium, 0.04 μM): 103 % untreated control; Proliferation (% untreated control) ([1]; complete medium, 0.2 μM): 81 % untreated control; Proliferation (% untreated control) ([1]; complete medium, 1 μM): 57 % untreated control; Proliferation (% untreated control) ([1]; complete medium, 5.0 μM): 58 % untreated control; proliferation of C4-2 cells ([1]; complete medium or CSS+1 nM DHT): reduced proliferation of the cells in a dose dependent manner compared to the control; Percent expression of AR ([2]; 0.04 μM): 89%; Percent expression of AR ([2]; 0.2 μM): 82%; Percent expression of AR ([2]; 1 μM): 52%; Percent expression of AR ([2]; 5.0 μM): 23%; Percent expression of AR in C4-2 cells cultured in complete medium ([2]; 0.04 μM): 72%; Percent expression of AR in C4-2 cells cultured in complete medium ([2]; 0.2 μM): 27%; Percent expression of AR in C4-2 cells cultured in complete medium ([2]; 1 μM): 11%; Percent expression of AR in C4-2 cells cultured in complete medium ([2]; 5.0 μM): 9%; Apoptosis (% untreated control) ([3]; CSS + DHT medium, 1.34 nM): 127 % untreated control; Apoptosis (% untreated control) ([3]; CSS + DHT medium, 4.0 nM): 106 % untreated control; Apoptosis (% untreated control) ([3]; CSS + DHT medium, 13.4 nM): 257 % untreated control; Apoptosis (% untreated control) ([3]; CSS + DHT medium, 40 nM): 1136 % untreated control; Apoptosis (% untreated control) ([3]; complete medium, 1.34 nM): 91 % untreated control; Apoptosis (% untreated control) ([3]; complete medium, 4.0 nM): 141 % untreated control; Apoptosis (% untreated control) ([3]; complete medium, 13.4 nM): 333 % untreated control; Apoptosis (% untreated control) ([3]; complete medium, 40 nM): 1452 % untreated control; apoptosis of 22RV1 cells ([3]; complete or CSS+DHT medium): increased apoptosis of the cells in a dose dependent compared to the control; Apoptosis (% untreated control) ([4]; 1.34 nM): 176 % untreated control; Apoptosis (% untreated control) ([4]; 4.0 nM): 293 % untreated control; Apoptosis (% untreated control) ([4]; 13.4 nM): 402 % untreated control; Apoptosis (% untreated control) ([4]; 40 nM): 581 % untreated control; apoptosis of VCaP cells [4]: increased apoptosis of the cells in a dose dependent compared to the control; Percent inhibition of TMPRSS2 expression ([5]; CSS + DHT medium, 1.34 nM): 6%; Percent inhibition of TMPRSS2 expression ([5]; CSS + DHT medium, 4.0 nM): 19%; Percent inhibition of TMPRSS2 expression ([5]; CSS + DHT medium, 13.4 nM): 40%; Percent inhibition of TMPRSS2 expression ([5]; CSS + DHT medium, 40 nM): 54%; Percent inhibition of TMPRSS2 expression ([5]; complete medium, 1.34 nM): 0%; Percent inhibition of TMPRSS2 expression ([5]; complete medium, 4.0 nM): 0%; Percent inhibition of TMPRSS2 expression ([5]; complete medium, 13.4 nM): 0%; Percent inhibition of TMPRSS2 expression ([5]; complete medium, 40 nM): 36%; Percent inhibition of TMPRSS2 expression ([6]; CSS + DHT medium, 1.34 nM): 27%; Percent inhibition of TMPRSS2 expression ([6]; CSS + DHT medium, 4.0 nM): 50%; Percent inhibition of TMPRSS2 expression ([6]; CSS + DHT medium, 13.4 nM): 75%; Percent inhibition of TMPRSS2 expression ([6]; complete medium, 1.34 nM): 0%; Percent inhibition of TMPRSS2 expression ([6]; complete medium, 4.0 nM): 13%; Percent inhibition of TMPRSS2 expression ([6]; complete medium, 13.4 nM): 21%; Percent inhibition of TMPRSS2 expression ([6]; complete medium, 40 nM): 36%; Percent inhibition of PSA expression ([7]; CSS + DHT medium, 1.34 nM): 8%; Percent inhibition of PSA expression ([7]; CSS + DHT medium, 4.0 nM): 25%; Percent inhibition of PSA expression ([7]; CSS + DHT medium, 13.4 nM): 62%; Percent inhibition of PSA expression ([7]; CSS + DHT medium, 40 nM): 74%; Percent inhibition of PSA expression ([7]; complete medium, 1.34 nM): 7%; Percent inhibition of PSA expression ([7]; complete medium, 4.0 nM): 19%; Percent inhibition of PSA expression ([7]; complete medium, 13.4 nM): 40%; Percent inhibition of PSA expression ([7]; complete medium, 40 nM): 52%; synergy with MDV3100 ([8]; 22RV1 cells): synergistic with MDV3100; inhibited cell proliferation, ASO alone ([8]; 22RV1 cells, ASO alone at 1.0 μM): 17%; cell proliferation inhibited, combination ([8]; 22RV1 cells, ISIS 569236 (1.0 μM as printed) in combination with 1.0 μM MDV3100): 30%; Proliferation (% untreated control) in 22RV1 cells with 0.04 μM MDV-3100 ([8]; ASO dose 0.4 nM + 0.04 μM MDV-3100): 83 % untreated control; Proliferation (% untreated control) in 22RV1 cells with 0.2 μM MDV-3100 ([8]; ASO dose 0.4 nM + 0.2 μM MDV-3100): 93 % untreated control; Proliferation (% untreated control) in 22RV1 cells with 1.0 μM MDV-3100 ([8]; ASO dose 0.4 nM + 1.0 μM MDV-3100): 79 % untreated control; Proliferation (% untreated control) in 22RV1 cells with 5.0 μM MDV-3100 ([8]; ASO dose 0.4 nM + 5.0 μM MDV-3100): 82 % untreated control; Proliferation (% untreated control) in 22RV1 without MDV-3100 ([8]; ASO dose 0.4 nM): 97 % untreated control; Proliferation (% untreated control) in 22RV1 cells with 0.04 μM MDV-3100 ([8]; ASO dose 1.34 nM + 0.04 μM MDV-3100): 70 % untreated control; Proliferation (% untreated control) in 22RV1 cells with 0.2 μM MDV-3100 ([8]; ASO dose 1.34 nM + 0.2 μM MDV-3100): 77 % untreated control; Proliferation (% untreated control) in 22RV1 cells with 1.0 μM MDV-3100 ([8]; ASO dose 1.34 nM + 1.0 μM MDV-3100): 70 % untreated control; Proliferation (% untreated control) in 22RV1 cells with 5.0 μM MDV-3100 ([8]; ASO dose 1.34 nM + 5.0 μM MDV-3100): 72 % untreated control; Proliferation (% untreated control) in 22RV1 without MDV-3100 ([8]; ASO dose 1.34 nM): 83 % untreated control; Proliferation (% untreated control) in 22RV1 cells with 0.04 μM MDV-3100 ([8]; ASO dose 4.0 nM + 0.04 μM MDV-3100): 61 % untreated control; Proliferation (% untreated control) in 22RV1 cells with 0.2 μM MDV-3100 ([8]; ASO dose 4.0 nM + 0.2 μM MDV-3100): 60 % untreated control; Proliferation (% untreated control) in 22RV1 cells with 1.0 μM MDV-3100 ([8]; ASO dose 4.0 nM + 1.0 μM MDV-3100): 52 % untreated control; Proliferation (% untreated control) in 22RV1 cells with 5.0 μM MDV-3100 ([8]; ASO dose 4.0 nM + 5.0 μM MDV-3100): 52 % untreated control; Proliferation (% untreated control) in 22RV1 without MDV-3100 ([8]; ASO dose 4.0 nM): 69 % untreated control; Proliferation (% untreated control) in 22RV1 cells with 0.04 μM MDV-3100 ([8]; ASO dose 13.4 nM + 0.04 μM MDV-3100): 24 % untreated control; Proliferation (% untreated control) in 22RV1 cells with 0.2 μM MDV-3100 ([8]; ASO dose 13.4 nM + 0.2 μM MDV-3100): 20 % untreated control; Proliferation (% untreated control) in 22RV1 cells with 1.0 μM MDV-3100 ([8]; ASO dose 13.4 nM + 1.0 μM MDV-3100): 18 % untreated control; Proliferation (% untreated control) in 22RV1 cells with 5.0 μM MDV-3100 ([8]; ASO dose 13.4 nM + 5.0 μM MDV-3100): 24 % untreated control; Proliferation (% untreated control) in 22RV1 without MDV-3100 ([8]; ASO dose 13.4 nM): 37 % untreated control
